The values below come from US20070117851A1, “Liquid pharmaceutical compositions of nimodipine” (TRANSFORM PHARMACEUTICALS, INC., priority 2005, published 2007).

The nature of data set [1]: Chemical stability of nimodipine in the Table 2 composition via HPLC. It counts as physicochemical. The protocol:
The chemical stability of nimodipine was measured at 40 and 60 degrees C. via HPLC in a composition described in Table 2.
FIGS. 1 and 2 show the chemical stability of nimodipine in the composition described in Table 2 at 40 and 60 degrees C., respectively. These Figures show data acquired with compositions having a pH of 5, 6, and 7, over a period of four weeks. […] Subsequent data has also been acquired over a period of 8 weeks.

A short description of data set [2]: Nimodipine equilibrium solubility in alcohol/solvent/water mixtures. The following applies: 10% ethanol. It counts as physicochemical. The protocol: The effect of several alcohol and solvent concentrations on nimodipine solubility in water was studied. Nimodipine equilibrium solubility was tested at room temperature with the following solutions: • 1. Various % (v/v) of ethanol in 10 mM pH 6.8 citrate buffer • 2. Various % (w/w) of Cremophor® EL in 10 mM pH 6.8 citrate buffer • 3. Various % (v/v) of ethanol with 30% (w/w) Cremophor® EL in 10 mM pH 6.8 citrate buffer • 4. Various % (w/w) of propylene glycol (PG) in the solution of 30% Cremophor™ EL and 10% ethanol in citrate buffer at pH 6.8 • 5. Various % (w/w) of propylene glycol (PG) in the solution of 20% Cremophor® EL and 10% ethanol in citrate buffer at pH 6.8 • 6. Various % (w/w) of PEG 400 in the solution of 20% Cremophor® EL and 10% ethanol in citrate buffer at pH 6.8 • 7. Various % (w/w) of PEG400 in the solution of 30% Cremophor® EL and 10% ethanol in citrate buffer at pH 6.8 • 8. Various % (w/w) of mixture of PG/PEG400 at 1:1 (w/w) in the solution of 30% Cremophor® EL and 10% ethanol in citrate buffer at pH6.8 The above solutions were prepared by weight except solution 1 which the percent ethanol was mixed with citrate buffer by volume. […] Concentration of each sample was determined by HPLC based on a standard curve and the dilution factor of each samples solution. […]

Values after ≈ are worked out from the molar mass of the structure shown.

On to `COCCOC(=O)C1=C(C)NC(C)=C(C(=O)OC(C)C)C1c1cccc([N+](=O)[O-])c1` (centres unmarked) [nimodipine, 1,4-dihydro-2,6-dimethyl-4-(3-nitrophenyl)-3,5-pyridinedicarboxylic acid 2-methoxyethyl 1-methylethyl ester], for which the nimodipine stability result was “greater than 99%” in data set [1] (Table 2 composition (3.0 mg/mL), 40 degrees C, pH 5, 6 and 7, four weeks, HPLC); “greater than 99%” in data set [1] (Table 2 composition (3.0 mg/mL), 60 degrees C, pH 5, 6 and 7, four weeks, HPLC); “greater than 99%” in data set [1] (Table 2 composition, 60 degrees C, pH=7, 8 weeks). In addition, the “nimodipine solubility compared with the composition comprising 30% ethanol and 30% Cremophor EL” value in data set [2] (30% PEG 400, FIG. 7) was “comparable”. Also, the solubility (usually the concentration that dissolves in the medium under given conditions) at 24 h in data set [2] (aqueous with cosolvent or surfactant or cyclodextrin, thermodynamic from solid, 30% Cremophor EL, 30% PEG 400 in citrate buffer pH 6.8, room temperature, 24 hours) was around 14 mg/mL (≈ 33.5 mM).
